In test [1] the test system is COX-2 mRNA in NOX1-b expressing cells. The settings on record: final concentration of 1 μM, RT-PCR 3 hours thereafter; EtBr staining.
Experimental: Using the mRNA extraction method shown in Example 1, respective cDNA samples were prepared from the vacant vector expressing cells and NOX1-b expressing cells. By synthesizing probe primers coding for the COX-2-specific sequences represented by SEQ ID NO:9 and SEQ ID NO:10, an RT-PCT reaction of 94° C. for 1 minute and 45 cycles consisting of 94° C. for 10 seconds, 55° C. for 20 seconds and 72° C. for 30 seconds, was carried out on each of the vacant vector expressing cell- and NOX1-b expressing cells-derived samples using a DNA polymerase (r Taq DNA polymerase; mfd. by Toyobo).
The target of a further test is NOX1-b (Homo sapiens, UniProt Q9Y5S8). Conditions: 1 μM added 30 minutes before the addition of cytochrome C; NOX1-b expressing NIH3T3 cells.
Test [2] has as its system TNF-α mRNA in NOX1-b expressing cells. The settings on record: pretreated for 3 hours with 1 μM; RT-PCR, EtBr staining.
Experimental: On each of the cDNA samples prepared in Example 6 and using a DNA polymerase (r Taq DNA polymerase; mfd. by Toyobo), RT-PCR reaction of 94° C. for 1 minute, 45 cycles of consisting of 94° C. for 10 seconds and 55° C. for 20 seconds and 72° C. for 30 seconds, was carried out.

Chain of NOX1-b (Q9Y5S8 1-515 isoform Q9Y5S8-3): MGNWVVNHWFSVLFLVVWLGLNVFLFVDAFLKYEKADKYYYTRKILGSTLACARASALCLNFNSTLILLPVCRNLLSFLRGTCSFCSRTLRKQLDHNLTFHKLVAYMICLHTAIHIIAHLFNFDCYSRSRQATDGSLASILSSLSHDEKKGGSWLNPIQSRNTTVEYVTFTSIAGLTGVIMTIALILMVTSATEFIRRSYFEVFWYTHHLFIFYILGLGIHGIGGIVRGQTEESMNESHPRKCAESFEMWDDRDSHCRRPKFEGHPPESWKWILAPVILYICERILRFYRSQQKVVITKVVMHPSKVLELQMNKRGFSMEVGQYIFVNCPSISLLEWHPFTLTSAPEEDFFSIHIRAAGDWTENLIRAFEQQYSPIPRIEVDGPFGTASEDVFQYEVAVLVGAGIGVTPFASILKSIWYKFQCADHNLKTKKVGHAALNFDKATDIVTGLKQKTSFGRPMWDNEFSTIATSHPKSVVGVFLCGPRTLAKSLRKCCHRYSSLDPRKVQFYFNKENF
Chain of NOX1-b (Q61462 whole entry partner): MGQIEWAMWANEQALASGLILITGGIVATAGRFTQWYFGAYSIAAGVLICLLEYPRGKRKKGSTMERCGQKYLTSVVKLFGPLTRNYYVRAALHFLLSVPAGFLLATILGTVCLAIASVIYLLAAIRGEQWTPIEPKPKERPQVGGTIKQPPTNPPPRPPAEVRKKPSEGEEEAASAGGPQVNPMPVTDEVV

For `c1ccc2c(c1)[I+]c1ccccc1-2` [DPI, diphenylene iodonium chloride], in test [1], the “induction of COX-2 expression by NOX1-b expression” value was “inhibited”. Further, at NOX1-b, the “ROS producing activity (absorbance at 550 nm, integrated values after 1 hour)” value is reported as “considerably inhibited”. Besides, in test [2], the “induction of TNF-α expression in NOX1-b expressing cells” value is recorded as “inhibited”.
